According to the supplement of paper PMC6045584:
± gives the standard deviation of the averaged measurements.

Compound: CC(=O)O[C@H]1C(=O)[C@@]2(C)[C@H]([C@H](OC(=O)c3ccccc3)[C@]3(O)C[C@H](OC(=O)[C@H](O)[C@@H](NC(=O)c4ccccc4)c4ccccc4)C(C)=C1C3(C)C)[C@]1(OC(C)=O)CO[C@@H]1C[C@@H]2O [PACLITAXEL]
Assay: surviving fraction relative to DMSO-only wells; higher = less growth inhibition
Details: 0.5 nM; exposure time: 5 days
Summary of the method: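 Viability was determined by CellTiter-Glo luminescence, expressed as surviving fraction normalised to the median of DMSO-only wells. The cells were log-phase tumour cell lines seeded at 250–500 per well in 384-well plates and, after 24 hours, exposed continuously for five days to inhibitors at 0.5, 1, 5, 10, 50, 100, 500 and 1000 nM. Three screens per line were run, keeping only lines with replicate Pearson r >0.7 and median Z' >0.3.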

| Test System | surviving fraction |
| --- | --- |
| JURKAT HAEMATOPOIETIC AND LYMPHOID TISSUE | 1.01 ± 0.024 |
| SJSA1 BONE | 0.942 ± 0.048 |
| YAMATO SYNOVIAL | 1.04 ± 0.16 |
| SCC003 HEADNECK | 0.945 ± 0.11 |
| NOS1 BONE | 1.08 ± 0.072 |
| BT549 BREAST | 0.963 ± 0.13 |
| HT1080 SOFT TISSUE | 0.772 ± 0.034 |
| MDAMB157 BREAST | 0.867 ± 0.075 |
| 143B BONE | 0.9755 ± 0.0078 |
| SIHA CERVIX | 0.988 ± 0.031 |
| SG32 HEADNECK | 0.906 ± 0.26 |
| SG31 HEADNECK | 0.976 ± 0.12 |
| VP229 BREAST | 1.05 ± 0.091 |
| RDES SOFT TISSUE | 1.099 ± 0.0061 |
| LM7 BONE | 0.951 ± 0.061 |
| HMT3552 BREAST | 0.568 |
| SNU475 LIVER | 0.8 ± 0.034 |

| Test System | surviving fraction |
| --- | --- |
| ASKA SYNOVIAL | 0.851 ± 0.028 |
| CADOES1 SOFT TISSUE | 1 ± 0.062 |
| BT20 BREAST | 0.956 ± 0.11 |
| SUM44 BREAST | 0.927 ± 0.021 |
| CHLA90 AUTONOMIC GANGLIA | 0.957 ± 0.032 |
| HCC78 LUNG | 0.846 ± 0.3 |
| MFM223 BREAST | 0.948 ± 0.056 |
| SG27 HEADNECK | 0.88 ± 0.066 |
| ZR751 BREAST | 0.774 ± 0.1 |
| MG63 BONE | 0.901 ± 0.049 |
| HS57T BREAST | 0.773 ± 0.045 |
| SUM159 BREAST | 1.13 ± 0.24 |
| MDAMB453 BREAST | 0.988 ± 0.082 |
| HMLE3 BREAST | 0.89 ± 0.065 |
| HCC70 BREAST | 0.937 ± 0.071 |
| VCAP PROSTATE | 0.846 ± 0.11 |

Same assay, conditions: 1 nM; exposure time: 5 days

| Test System | surviving fraction |
| --- | --- |
| JURKAT HAEMATOPOIETIC AND LYMPHOID TISSUE | 0.675 ± 0.042 |
| SJSA1 BONE | 0.833 ± 0.041 |
| YAMATO SYNOVIAL | 0.891 ± 0.036 |
| SCC003 HEADNECK | 0.805 ± 0.075 |
| NOS1 BONE | 0.6 ± 0.053 |
| BT549 BREAST | 0.219 ± 0.04 |
| HT1080 SOFT TISSUE | 0.533 ± 0.0091 |
| MDAMB157 BREAST | 0.674 ± 0.019 |
| 143B BONE | 0.99 ± 0.031 |
| SIHA CERVIX | 0.948 ± 0.04 |
| SG32 HEADNECK | 0.603 ± 0.093 |
| SG31 HEADNECK | 0.887 ± 0.06 |
| VP229 BREAST | 0.93 ± 0.067 |
| RDES SOFT TISSUE | 1.22 ± 0.22 |
| LM7 BONE | 0.825 ± 0.034 |
| HMT3552 BREAST | 0.133 |
| SNU475 LIVER | 0.649 ± 0.026 |

| Test System | surviving fraction |
| --- | --- |
| ASKA SYNOVIAL | 0.629 ± 0.052 |
| CADOES1 SOFT TISSUE | 0.994 ± 0.13 |
| BT20 BREAST | 0.718 ± 0.026 |
| SUM44 BREAST | 0.515 ± 0.041 |
| CHLA90 AUTONOMIC GANGLIA | 0.948 ± 0.056 |
| HCC78 LUNG | 0.486 ± 0.046 |
| MFM223 BREAST | 0.736 ± 0.066 |
| SG27 HEADNECK | 0.899 ± 0.062 |
| ZR751 BREAST | 0.628 ± 0.042 |
| MG63 BONE | 0.881 ± 0.021 |
| HS57T BREAST | 0.478 ± 0.058 |
| SUM159 BREAST | 1.1 ± 0.15 |
| MDAMB453 BREAST | 0.998 ± 0.096 |
| HMLE3 BREAST | 0.816 ± 0.1 |
| HCC70 BREAST | 0.81 ± 0.07 |
| VCAP PROSTATE | 0.666 ± 0.052 |

Same assay, conditions: 5 nM; exposure time: 5 days

| Test System | surviving fraction |
| --- | --- |
| JURKAT HAEMATOPOIETIC AND LYMPHOID TISSUE | 0.0347 ± 0.0021 |
| SJSA1 BONE | 0.342 ± 0.0057 |
| YAMATO SYNOVIAL | 0.488 ± 0.069 |
| SCC003 HEADNECK | 0.324 ± 0.037 |
| NOS1 BONE | 0.396 ± 0.026 |
| BT549 BREAST | 0.0553 ± 0.0085 |
| HT1080 SOFT TISSUE | 0.133 ± 0.019 |
| MDAMB157 BREAST | 0.144 ± 0.022 |
| 143B BONE | 0.424 ± 0.016 |
| SIHA CERVIX | 0.238 ± 0.029 |
| SG32 HEADNECK | 0.275 ± 0.032 |
| SG31 HEADNECK | 0.455 ± 0.029 |
| VP229 BREAST | 0.516 ± 0.064 |
| RDES SOFT TISSUE | 0.189 ± 0.067 |
| LM7 BONE | 0.123 ± 0.019 |
| HMT3552 BREAST | 0.09 |
| SNU475 LIVER | 0.282 ± 0.018 |

| Test System | surviving fraction |
| --- | --- |
| ASKA SYNOVIAL | 0.203 ± 0.011 |
| CADOES1 SOFT TISSUE | 0.955 ± 0.039 |
| BT20 BREAST | 0.0893 ± 0.0055 |
| SUM44 BREAST | 0.403 ± 0.0066 |
| CHLA90 AUTONOMIC GANGLIA | 0.507 ± 0.022 |
| HCC78 LUNG | 0.16 ± 0.036 |
| MFM223 BREAST | 0.295 ± 0.026 |
| SG27 HEADNECK | 0.937 ± 0.032 |
| ZR751 BREAST | 0.52 ± 0.087 |
| MG63 BONE | 0.263 ± 0.016 |
| HS57T BREAST | 0.0727 ± 0.0025 |
| SUM159 BREAST | 0.57 ± 0.024 |
| MDAMB453 BREAST | 0.382 ± 0.051 |
| HMLE3 BREAST | 0.247 ± 0.019 |
| HCC70 BREAST | 0.218 ± 0.029 |
| VCAP PROSTATE | 0.179 ± 0.038 |

Same assay, conditions: 10 nM; exposure time: 5 days

| Test System | surviving fraction |
| --- | --- |
| JURKAT HAEMATOPOIETIC AND LYMPHOID TISSUE | 0.03 ± 0.001 |
| SJSA1 BONE | 0.18 ± 0.013 |
| YAMATO SYNOVIAL | 0.464 ± 0.043 |
| SCC003 HEADNECK | 0.27 ± 0.028 |
| NOS1 BONE | 0.304 ± 0.0081 |
| BT549 BREAST | 0.0387 ± 0.0025 |
| HT1080 SOFT TISSUE | 0.0517 ± 0.0035 |
| MDAMB157 BREAST | 0.105 ± 0.019 |
| 143B BONE | 0.265 ± 0.018 |
| SIHA CERVIX | 0.136 ± 0.014 |
| SG32 HEADNECK | 0.259 ± 0.015 |
| SG31 HEADNECK | 0.381 ± 0.036 |
| VP229 BREAST | 0.364 ± 0.041 |
| RDES SOFT TISSUE | 0.129 ± 0.014 |
| LM7 BONE | 0.092 ± 0.003 |
| HMT3552 BREAST | 0.091 |
| SNU475 LIVER | 0.2 ± 0.023 |
| ASKA SYNOVIAL | 0.194 ± 0.0031 |
| CADOES1 SOFT TISSUE | 0.846 ± 0.078 |
| BT20 BREAST | 0.0667 ± 0.0057 |
| SUM44 BREAST | 0.278 ± 0.0095 |
| CHLA90 AUTONOMIC GANGLIA | 0.231 ± 0.026 |
| HCC78 LUNG | 0.104 ± 0.021 |
| MFM223 BREAST | 0.129 ± 0.012 |
| SG27 HEADNECK | 0.935 ± 0.056 |
| ZR751 BREAST | 0.461 ± 0.024 |
| MG63 BONE | 0.095 ± 0.01 |
| HS57T BREAST | 0.0563 ± 0.0021 |
